For data set [1], the system named is Panc1 cells. The class given is cell-based, human. The method, then: FIG. 18. Chart showing viability of Panc1 cells. Vertical axis: viability as a percentage of the viability of mock-transfected cells, 72 hours following transfection with the indicated siRNA. Dotted line indicates 50% reduction in viability. For all the differences, p<0.05 relative to the mock-transfected cells.
The effect of siRNA-mediated down-regulation of EMT-related genes on viability of Panc1 cancer cells was measured as follows: siRNAs targeting the indicated genes, namely SLUG (SNAI2), SNAI1 TWIST, Zeb1, Zeb2, Goosecoid, and E12 (TCF3), were designed and synthetized by IDT-Syntezza, using 2 different siRNA's per target (Table 3). Panc1 cells were transfected with the siRNAs using Lipofectamine®. 72 hrs post-transfection, cell viability was tested by Methylene blue (MB) assay. Gemzar® was used as a positive control for cell killing.

Data set [2] deals with Panc1 cells. Put plainly: Cell viability by Methylene Blue test, siRNA alone and with Gemzar. The class given is cell-based, human. Particulars: 72 h; 1 hr of treatment with 10 μM Gemzar after transfection. As for the experimental part:
FIG. 15. Gemzar® enhances siG12D-DDD effect. Panc1 cells were transfected using Lipofectamine™ with unmodified and modified siG12D and a scrambled (non-targeting) siRNA control molecule or were mock transfected (no siRNA). Cell viability was assessed 72 hrs post-transfection by the Methylene Blue (MB) test. Additional groups were transfected as described above, followed by 1 hr of treatment with 10 μM Gemzar®. The numbers 1-4 in the last column relate to the percent of inhibition of cellular growth, wherein the inhibition seen with the unmodified siRNA was assigned the value of 100%. 4, 3, 2, and 1 refer respectively to 75-100%, 50-75%, 25-50%, and 0-25% of the inhibition seen with the unmodified siRNA.
Experimental procedure: Panc1 cells were transfected using Lipofectamine™ with unmodified and modified siG12D and a scrambled (non-targeting) siRNA control molecule or were mock transfected (no siRNA). Cell viability was assessed 72 hrs post-transfection by the Methylene Blue (MB) test. Additional groups were transfected as described above, followed by 1 hr of treatment with 10 μM Gemzar®. At the exemplary time point of 72 h, Gemzar® enhanced the effect of siG12D by nearly 10% (FIG. 15). […] Other time points, for example 48h, 72 h, 96 h and 120 h, may be utilized in additional studies.

Another data set concerns P-Erk. Put plainly: Western blot of KRAS downstream effector P-Erk. The class given is cell-based, human. The conditions noted are these: 36 hrs after transfection, normalized to β-actin. The text has this: (§1) FIG. 19. Treatment with anti-k-ras siRNA reduces levels of downstream effector proteins. Panc1 cells were left untreated (u/t) or transiently transfected with siG12D, non-targeting scrambled siRNA (si-scr) or mock transfected. A. Shown are representative blots of KRAS, P-Erk, P-Akt, and β-actin. B. Quantitation of protein expression, expressed as average±S.E.M. Numbers were normalized to the level of β-actin, then the resulting number was normalized to the expression in scrambled siRNA-transfected cells, which was set as 100%. Student's t-test was used to calculate(p) compared to mock-transfected cells.
(§2) To confirm the specific action of siG12D on the K-ras signaling pathway, KRAS, level of activation of the KRAS downstream effectors ERK and Akt was measured following treatment with siG12D. […] 36 hrs after transfection, cells were lysed and relative levels of KRAS, P-Erk and P-Akt proteins were assessed by Western blot analysis. […]
(§3) Western blot assays were carried by homogenizing cells in lysis buffer A (0.25M sucrose, 20 mM Tris pH 7.6, 1.5 mM MgCl2, 10% glycerol, 1 mM EDTA and “cOmplete mini” protein inhibitor cocktail (Roche Diagnostics)), incubated on ice for 10 min, centrifuged at 12,000 rpm for 15 min at 4° C., and supernatants were collected. […] Results are expressed as ratio of protein of interest/β-actin to correct for amount of protein loaded in each sample.

The subject of the next data set is Akt. In words: Orthotopic Panc1-LUC tumors, Akt immunohistochemistry. The class given is in vivo, human. The conditions noted are these: 39 days post-treatment, IH.
A further data set deals with normal mice. Put plainly: Toxicity study of LODER-driven siRNA in normal mice. The class given is in vivo. Particulars: intraperitoneally injected. As for the experimental part:
(§4) To study the toxic potential of the LODER-driven siRNA, we compared the effect of the siG12D LODER (16, 32 and 64 μg siG12D/kg weight) to that of the empty LODER and to sham-operated or untreated animals. LODERs were implanted into the pancreas of normal mice and rats, both males and females of both species. In parallel, the same and higher doses of siG12D were intraperitoneally injected into normal mice and rats (16, 160 and 320 μg siG12D/kg weight). The duration of this study was 2 weeks in mice and 8 weeks in rats. […] Based on the lack of adverse reaction following siRNA treatment, the maximum dose of 0.32 mg siRNA/kg body weight was considered as not constituting an acute toxicity risk.

In another data set the test system is Panc-1 cells. In words: Scratch assay. The conditions noted are these: after 24 hours, light microscopy. The class given is cell-based, human. As for the experimental part: FIG. 7. siG12D reduces EMT in Panc1 cells. A. Migration assay. Panc-1 cells were transfected with siG12D or non-targeting control (scrambled) or were treated with TGFβ (positive control). The migration ability was assessed using a modified Boyden chamber assay. The percentage of migrated cells relative to untreated cells is presented. B. Scratch assay. Panc-1 cells were mock-transfected or transfected in vitro with scrambled siRNA or siG12D, then were seeded in 6 W plates. After 24 hours, the cells were reseeded in 24 W plates to form a confluent culture. One day after reseeding, the cells were scratched with a plastic tip. […]
FIG. 8. Light microscopy images of migration of siG12D-DDD treated cells in a scratch assay, showing the inhibitory effect of siG12D on cellular migration.
In order to study the effects of siG12D on the EMT process and its consequent increased cellular migration and motility, we conducted a series of experiments in which we examined different aspects of this process. We analyzed the migration characteristics of Panc1 cells following transfection with siG12D or scrambled siRNA, using the scratch and transwell-migration assays. TGF-β was used as a positive control. […] To test migration through a scratch assay. […]

In the next data set the test system is Zeb1, Slug, E-Cadherin. Put plainly: Expression of genes characteristic of EMT. The class given is cell-based, human. Particulars: in vitro, normalized to the untreated cells. The text has this:
FIG. 9. Effect of the siG12DDDD on expression levels of metastasis-facilitating genes. Expression levels are normalized to the untreated cells.
Treatment of siG12D in vitro was followed by measurement of genes whose expression (high or low) is characteristic of EMT.

The subject of another data set is PancO2 cell. In words: PancO2 cell growth in vitro. The class given is cell-based, mouse.
The subject of another data set is normal rats. In words: Toxicity study of LODER-driven siRNA in normal rats. The class given is in vivo. The conditions noted are these: intraperitoneally injected. The method, then:
as §4

A further data set deals with K-ras mRNA. Particulars: read-out: K-ras mRNA levels, half-maximal inhibitory concentration (IC50); Panc1 cells transfected; Real-Time PCR, HPRT and UBC endogenous controls. As for the experimental part: Panc1 cells, human pancreatic carcinoma cells that carry the […] in the K-ras gene, were mock-transfected or transfected with siG12D or control scrambled siRNA (si-scr). The relative K-ras mRNA levels were assessed by Real-Time PCR, with Hypoxantine PhosphoRybosyl Transferase (HPRT) and Ubiquitin C (UBC) used as endogenous controls.

The subject of a further data set is P-Akt. Put plainly: Western blot of KRAS downstream effector P-Akt. The class given is cell-based, human. The conditions noted are these: 36 hrs after transfection, normalized to β-actin.
From the text: as §1, §2, §3

The subject of data set [3] is Panc1 cells. Put plainly: Migration assay (modified Boyden chamber). The conditions noted are these: transfected cells, relative to untreated cells. The class given is cell-based, human.

As to “TWIST-2: siRNA targeting TWIST; sense ggugugcguccagccguugdTdT, antisense caacggcuggacgcacaccdTdT; SEQ ID No's 108-109 (sense GGUGUGCGUCCAGCCGUUGTT; antisense CAACGGCUGGACGCACACCTT; DNA at 20, 21, other sugars and backbone not given here)”, the reduction in viability result in the data set on Panc1 cells [1] is given as “greater than 50%”.
Consider `Nc1ccn([C@@H]2O[C@H](CO)[C@@H](O)C2(F)F)c(=O)n1` [Gemzar®, 2′,2′-difluorodeoxycytidine], for which, in the data set with Panc1 cells [2], the “enhancement of the effect of siG12D on cell viability” value was roughly 10%.
Turning to “siG12D: siRNA against K-ras G12D; sense GUUGGAGCUGAUGGCGUAGdTdT, antisense CUACGCCAUCAGCUCCAACdTdT (SEQ ID No: 41-42) (sense GUUGGAGCUGAUGGCGUAGTT; antisense CUACGCCAUCAGCUCCAACTT; DNA at 20, 21, other sugars and backbone not given here)”, in the data set on P-Erk, the “level of P-Erk” value is listed as “decreased”. Moreover, the Akt phosphorylation entry with Akt is recorded as “induced”. The “maximum dose considered as not constituting an acute toxicity risk” value with normal mice amounted to 0.32 mg siRNA/kg body weight. The “migration in scratch assay” value in the data set on Panc-1 cells was “barely migrated”. Besides, in the data set with Panc1 cells [1], the reduction in viability is listed as roughly 50%. Also, in the data set on Zeb1, Slug, E-Cadherin, the “expression of epithelial genes (E-Cadherin)” value is “augmented expression”; the “expression of mesenchymal genes (Zeb1 and Slug)” value was “reduced expression”. Further, the PancO2 cell growth result in the data set on PancO2 cell is given as “inhibited PancO2 cell growth to a similar extent as Panc1 cells”. Further, the “maximum dose considered as not constituting an acute toxicity risk” value in the data set with normal rats was found to be 0.32 mg siRNA/kg body weight. Besides, the IC50 in the data set with K-ras mRNA was 0.067 nM. Further, in the data set on P-Akt, the “level of P-Akt” value is on record as “decreased”. Besides, the “inhibition of Panc1 migration” value in the data set on Panc1 cells [3] was “more than 30%”.
Consider “TCF3-1: siRNA targeting E12 (TCF3); sense cuccuggacuucagcaugadTdT, antisense ucaugcugaaguccaggagdTdT; SEQ ID No's 131-132 (sense CUCCUGGACUUCAGCAUGATT; antisense UCAUGCUGAAGUCCAGGAGTT; DNA at 20, 21, other sugars and backbone not given here)”, for which, in the data set on Panc1 cells [1], the reduction in viability result is given as “greater than 50%”.
On to “Goosecoid-1: siRNA targeting Goosecoid; sense agcauguucagcaucgacadTdT, antisense ugucgaugcugaacaugcudTdT; SEQ ID No's 127-128 (sense AGCAUGUUCAGCAUCGACATT; antisense UGUCGAUGCUGAACAUGCUTT; DNA at 20, 21, other sugars and backbone not given here)”, for which the reduction in viability in the data set on Panc1 cells [1] is reported as roughly 50%.
“SNAI2-2: siRNA targeting SLUG (SNAI2); sense cuggucaagaagcauuucadTdT, antisense ugaaaugcuucuugaccagdTdT; SEQ ID No's 104-105 (sense CUGGUCAAGAAGCAUUUCATT; antisense UGAAAUGCUUCUUGACCAGTT; DNA at 20, 21, other sugars and backbone not given here)”: the reduction in viability in the data set on Panc1 cells [1] is reported as roughly 50%.
As for “SNAI1-2: siRNA targeting SNAI1; sense augcacauccgaagccacadTdT, antisense uguggcuucggaugugcaudTdT; SEQ ID No's 124-125”, the reduction in viability result with Panc1 cells [1] is reported as “greater than 50%”.
On the same count and under the same terms, the figure for “Zeb1-2: siRNA targeting Zeb1; sense cagguguaagcgcagaaagdTdT, antisense cuuucugcgcuuacaccugdTdT; SEQ ID No's 112-113 (sense CAGGUGUAAGCGCAGAAAGTT; antisense CUUUCUGCGCUUACACCUGTT; DNA at 20, 21, other sugars and backbone not given here)” is roughly 50%.
